System: Echinochloa crus-galli
Test: Example 3 post-emergence field trial, ECHCG
Assay type: in vivo
Conditions: height 15-20 cm
Method: In the examples below, using the method of S. R. Colby (1967) “Calculating synergistic and antagonistic responses of herbicide combinations”, Weeds 15, p. 22ff., the value E, which is expected if the activity of the individual active compounds is only additive, was calculated: [formula] • where • X=percent activity using active herbicide A at an application rate a; • Y=percent activity using active herbicide B (e.g. mesotrione) at an application rate b; • E=expected activity (in %) by A+B at application rates a+b. If the value found experimentally is higher than the value E calculated according to Colby, a synergistic effect is present. Evaluation was carried out using a scale from 0 to 100. 100 means no emergence of the plants, or complete destruction of at least the above-ground parts, and 0 means no damage or normal course of growth. A good herbicidal activity is given at values of at least 70, and very good herbicidal activity is given at values of at least 85. Post-Emergence Application of Herbicide A-1 (A-1) and Mesotrione (B) in Field Trials Herbicide A-1 (342 g/l) and mesotrione (100 g/l) were, together with addition of 0.5 v/v % MSO (methylated sed oil) as adjuvant, formulated in water as distribution medium (water volume 200 l/ha) and sprayed with commercial flat fan nozzles.

[1] = 7 DAT, g ai/ha: A-1 12.5, B 105
[2] = 7 DAT, g ai/ha: A-1 12.5, B 210
[3] = 21 DAT, g ai/ha: A-1 12.5, B 105
[4] = 28 DAT, g ai/ha: A-1 12.5, B 105

Measured: % herbicidal activity

CS(=O)(=O)c1ccc(C(=O)C2C(=O)CCCC2=O)c([N+](=O)[O-])c1 [B, mesotrione]
50%: [1] | [2] | 7 DAT, g ai/ha: A-1 18, B 105 | 7 DAT, g ai/ha: A-1 18, B 210 | [4] | 28 DAT, g ai/ha: A-1 18, B 105
60%: [3] | 21 DAT, g ai/ha: A-1 18, B 105

CCOC(=O)COc1ccccc1Oc1nc(-n2c(=O)cc(C(F)(F)F)n(C)c2=O)c(F)cc1Cl [A-1, ethyl 2-[2-[[3-chloro-5-fluoro-6-[3-methyl-2,6-dioxo-4-(trifluoromethyl)pyrimidin-1-yl]-2-pyridyl]oxy]phenoxy]acetate]
20%: [2] | [4]
30%: [1] | 7 DAT, g ai/ha: A-1 18, B 105 | 7 DAT, g ai/ha: A-1 18, B 210 | [3] | 21 DAT, g ai/ha: A-1 18, B 105 | 28 DAT, g ai/ha: A-1 18, B 105
